Reference: patent US20220016277A1, “MACROCYCLIC COMPLEXES OF RADIONUCLIDES AND THEIR USE IN RADIOTHERAPY OF CANCER” (Cornell University, priority 2018, published 2022)

Test: Organ distribution of ^225Ac complexes following intravenous injection in mice
Assay type: in vivo, C57BL/6 mice
Description: In Vivo Biodistribution of ^225Ac Complexes of Macropa and DOTA. All experiments were approved by the Institutional Animal Care Committee (IACC) of the University of British Columbia and were performed in accordance with the Canadian Council on Animal Care Guidelines. A total of 9 female C57BL/6 mice (6-8 weeks old, 20-25 g) were used for the biodistribution study of each radiometal complex, n=3 for each time point.
Macropa (100 μL of a 1 mg/mL solution in NH4OAc) was diluted with 387 μL of NH4OAc (1 M, pH 7), and an aliquot (203 μL) of ^225Ac(NO3)3 (˜157 kBq) was then added; the pH of this solution was adjusted to 6.5-7 by the addition of 1 M NaOH (210 μL, trace metal grade). After 5 min at ambient temperature, the reaction solution was analyzed by TLC (0.4 M pH 4 sodium citrate as the eluent), which confirmed >95% radiochemical yield. The reaction was allowed to proceed overnight, and the radiochemical yield was again confirmed to be >95% the following morning. At this time, mice were anesthetized by 2% isoflurane, and approximately 100 μL (10-15 kBq) of the [^225Ac(macropa)]^+ complex were injected into the tail vein of each mouse. After injection, mice were allowed to recover and roam freely in their cages, and were euthanized by CO2 inhalation at 15 min, 1 h, or 5 h (n=3 at each time point) post-injection. Blood was collected by cardiac puncture and placed into an appropriate test tube for scintillation counting. Tissues collected included heart, liver, kidneys, lungs, small intestine, large intestine, brain, bladder, spleen, stomach, pancreas, bone, thyroid, tail, urine, and feces. Tissues were weighed and then counted with a calibrated gamma counter (Packard, Cobra II model 5002) using three energy windows: 60-120 keV (window A), 180-260 keV (window B), and 400-480 keV (window C). Counting was performed both immediately after sacrifice and after 7 days; counts were decay corrected from the time of injection and then converted to the percentage of injected dose (% ID) per gram of tissue (% ID/g). […]
The biodistribution studies of [^225Ac(DOTA)]^− and ^225Ac(NO3)3 were carried out as described above for [^225Ac(macropa)]^+, with the following modifications. [^225Ac(DOTA)^− was prepared by adding ^225Ac(NO3)3 (338 μL, 1.1 MBq) to a solution of DOTA (100 μg, 20 mg/mL in H2O) in NH4OAc (467 μL, 0.15 M, pH 7). The pH of the solution was adjusted to 7 using NH4OAc (150 μL, 1 M, pH 7) and the solution was heated at 85° C. for 45 min. RCY >99% was confirmed by TLC as described above. [^225Ac(DOTA)]^− was diluted with saline to a final concentration of 0.05 MBq/100 μL, and 100 μL were injected into each mouse. ^225Ac(NO3)3 (˜58 μL, 0.4 MBq) was diluted and injected in the same manner as [^225Ac(DOTA)]^−. One mouse that was to be euthanized at the 5 h time point in the [^225Ac(DOTA)]^− study died shortly after injection. In the same manner, one mouse that was to be euthanized at the 1 h time point in the ^225Ac(NO3)3 study died.
The in vivo stability [^225Ac(macropa)]^+ was examined by comparing its biodistribution to those of ^225Ac(NO3)3 and [^225Ac(DOTA)]^−. C57BL/6 mice were injected via tail vein with 10-50 kBq of each radiometal complex and were sacrificed after 15 min, 1 h, or 5 h. The amount of ^225Ac retained in each organ was quantified by gamma counting and reported as the percent of injected dose per gram of tissue (% ID/g). The results of these studies are compiled in Tables 1-3. Inadequate stability of an ^225Ac complex leading to the loss of radioisotope in vivo is manifested by the accumulation of ^225Ac in the liver, spleen, and bone of mice.^[11,12,32] […] The biodistribution profile of [^225Ac(macropa)]^+ (FIG. 3B) differs markedly from that of ^225Ac(NO3)3. […] Its biodistribution profile was similar to that of [^225Ac(DOTA)]^− (FIG. 3C), which has been previously shown to retain ^225Ac^3+ in vivo.^[7]

[1] = 15 min post i.v. injection, energy window A (60-120 keV)
[2] = 15 min post i.v. injection, energy window B (180-260 keV)
[3] = 15 min post i.v. injection, energy window C (400-480 keV)
[4] = 1 h post i.v. injection, energy window A (60-120 keV)
[5] = 1 h post i.v. injection, energy window B (180-260 keV)
[6] = 1 h post i.v. injection, energy window C (400-480 keV)
[7] = 5 h post i.v. injection, energy window A (60-120 keV)
[8] = 5 h post i.v. injection, energy window B (180-260 keV)

## O=C([O-])CN1CCN(CC(=O)[O-])CCN(CC(=O)[O-])CCN(CC(=O)[O-])CC1.[225Ac+3] [[^225Ac(DOTA)]^−]
[1]
  Organ distribution: bladder: 48.2703 % ID/g
  Organ distribution: blood: 5.2881 % ID/g
  Organ distribution: bone (femur + joint): 2.6298 % ID/g
  Organ distribution: brain: 0.2655 % ID/g
  Organ distribution: feces: 6.2730 % ID/g
  Organ distribution: heart: 2.3335 % ID/g
  Organ distribution: kidneys: 27.6566 % ID/g
  Organ distribution: large intestines: 2.3348 % ID/g
  Organ distribution: liver: 2.2520 % ID/g
  Organ distribution: lungs: 5.7556 % ID/g
  Organ distribution: pancreas: 1.5090 % ID/g
  Organ distribution: small intestines: 2.6370 % ID/g
  Organ distribution: spleen: 2.5905 % ID/g
  Organ distribution: stomach: 2.7440 % ID/g
  Organ distribution: tail: 8.8606 % ID/g
  Organ distribution: thyroids: −5.7725 % ID/g
  Organ distribution: urine: 1467.9186 % ID/g
[2]
  Organ distribution: bladder: 54.4696 % ID/g
  Organ distribution: blood: 5.6357 % ID/g
  Organ distribution: bone (femur + joint): 3.0357 % ID/g
  Organ distribution: brain: 0.2735 % ID/g
  Organ distribution: feces: 1.0222 % ID/g
  Organ distribution: heart: 2.7276 % ID/g
  Organ distribution: kidneys: 28.0858 % ID/g
  Organ distribution: large intestines: 2.5365 % ID/g
  Organ distribution: liver: 2.1817 % ID/g
  Organ distribution: lungs: 6.0147 % ID/g
  Organ distribution: pancreas: 1.4929 % ID/g
  Organ distribution: small intestines: 2.5009 % ID/g
  Organ distribution: spleen: 2.9076 % ID/g
  Organ distribution: stomach: 2.7311 % ID/g
  Organ distribution: tail: 9.4746 % ID/g
  Organ distribution: thyroids: 1.6601 % ID/g
  Organ distribution: urine: 1635.4394 % ID/g
[3]
  Organ distribution: bladder: 76.0987 % ID/g
  Organ distribution: blood: 7.2941 % ID/g
  Organ distribution: bone (femur + joint): 4.4224 % ID/g
  Organ distribution: brain: 0.1588 % ID/g
  Organ distribution: feces: 1.5693 % ID/g
  Organ distribution: heart: 2.5579 % ID/g
  Organ distribution: kidneys: 40.4489 % ID/g
  Organ distribution: large intestines: 3.8419 % ID/g
  Organ distribution: liver: 2.9046 % ID/g
  Organ distribution: lungs: 7.3872 % ID/g
  Organ distribution: pancreas: 1.0290 % ID/g
  Organ distribution: small intestines: 3.8916 % ID/g
  Organ distribution: spleen: 1.5598 % ID/g
  Organ distribution: stomach: 3.2425 % ID/g
  Organ distribution: tail: 13.4731 % ID/g
  Organ distribution: thyroids: −109.5394 % ID/g
  Organ distribution: urine: 2691.0615 % ID/g
[4]
  Organ distribution: bladder: 4.7351 % ID/g
  Organ distribution: blood: 0.1144 % ID/g
  Organ distribution: bone (femur + joint): 0.4487 % ID/g
  Organ distribution: brain: 0.0224 % ID/g
  Organ distribution: feces: 0.2035 % ID/g
  Organ distribution: heart: 0.1012 % ID/g
  Organ distribution: kidneys: 1.4020 % ID/g
  Organ distribution: large intestines: 0.1229 % ID/g
  Organ distribution: liver: 0.2715 % ID/g
  Organ distribution: lungs: 0.1555 % ID/g
  Organ distribution: pancreas: 0.0743 % ID/g
  Organ distribution: small intestines: 1.7207 % ID/g
  Organ distribution: spleen: 0.0938 % ID/g
  Organ distribution: stomach: 0.1367 % ID/g
  Organ distribution: tail: 0.8091 % ID/g
  Organ distribution: thyroids: 2.3564 % ID/g
  Organ distribution: urine: 158.6102 % ID/g
[5]
  Organ distribution: bladder: 4.7141 % ID/g
  Organ distribution: blood: 0.1127 % ID/g
  Organ distribution: bone (femur + joint): 0.4126 % ID/g
  Organ distribution: brain: 0.0248 % ID/g
  Organ distribution: feces: 0.2349 % ID/g
  Organ distribution: heart: 0.1378 % ID/g
  Organ distribution: kidneys: 1.2560 % ID/g
  Organ distribution: large intestines: 0.0813 % ID/g
  Organ distribution: liver: 0.2672 % ID/g
  Organ distribution: lungs: 0.1946 % ID/g
  Organ distribution: pancreas: 0.0746 % ID/g
  Organ distribution: small intestines: 1.8809 % ID/g
  Organ distribution: spleen: 0.0825 % ID/g
  Organ distribution: stomach: 0.1379 % ID/g
  Organ distribution: tail: 0.8973 % ID/g
  Organ distribution: thyroids: 2.6514 % ID/g
  Organ distribution: urine: 159.1628 % ID/g
[6]
  Organ distribution: bladder: 6.9149 % ID/g
  Organ distribution: blood: 0.1102 % ID/g
  Organ distribution: bone (femur + joint): 0.5654 % ID/g
  Organ distribution: brain: 0.0380 % ID/g
  Organ distribution: feces: 0.4091 % ID/g
  Organ distribution: heart: 0.2857 % ID/g
  Organ distribution: kidneys: 1.4787 % ID/g
  Organ distribution: large intestines: 0.1381 % ID/g
  Organ distribution: liver: 0.2841 % ID/g
  Organ distribution: lungs: 0.2551 % ID/g
  Organ distribution: pancreas: 0.1730 % ID/g
  Organ distribution: small intestines: 2.0201 % ID/g
  Organ distribution: spleen: 0.2228 % ID/g
  Organ distribution: stomach: 0.1720 % ID/g
  Organ distribution: tail: 1.0280 % ID/g
  Organ distribution: thyroids: 3.5247 % ID/g
  Organ distribution: urine: 177.6788 % ID/g
[7]
  Organ distribution: bladder: 0.3551 % ID/g
  Organ distribution: blood: 0.0140 % ID/g
  Organ distribution: bone (femur + joint): 0.2063 % ID/g
  Organ distribution: brain: 0.0213 % ID/g
  Organ distribution: feces: 5.5318 % ID/g
  Organ distribution: heart: 0.0664 % ID/g
  Organ distribution: kidneys: 0.6172 % ID/g
  Organ distribution: large intestines: 0.2026 % ID/g
  Organ distribution: liver: 0.1010 % ID/g
  Organ distribution: lungs: 0.0390 % ID/g
  Organ distribution: pancreas: 0.0677 % ID/g
  Organ distribution: small intestines: 0.0967 % ID/g
  Organ distribution: spleen: 0.1380 % ID/g
  Organ distribution: stomach: 0.0852 % ID/g
  Organ distribution: tail: 0.3057 % ID/g
  Organ distribution: thyroids: 3.6425 % ID/g
  Organ distribution: urine: 1.1612 % ID/g
[8]
  Organ distribution: bladder: 0.7521 % ID/g
  Organ distribution: blood: 0.0292 % ID/g
  Organ distribution: bone (femur + joint): 0.1478 % ID/g
  Organ distribution: brain: 0.0513 % ID/g
  Organ distribution: feces: 3.3534 % ID/g
  Organ distribution: heart: 0.0879 % ID/g
  Organ distribution: kidneys: 0.6718 % ID/g
  Organ distribution: large intestines: 0.2527 % ID/g
  Organ distribution: liver: 0.2712 % ID/g
  Organ distribution: lungs: 0.1289 % ID/g
  Organ distribution: pancreas: 0.1266 % ID/g
  Organ distribution: small intestines: 0.2065 % ID/g
  Organ distribution: spleen: 0.0834 % ID/g
  Organ distribution: stomach: 0.1789 % ID/g
  Organ distribution: tail: 0.1634 % ID/g
  Organ distribution: thyroids: 16.2357 % ID/g
  Organ distribution: urine: 3.6967 % ID/g
